The nature of test [1]: Inhibition of His-tagged HSD17B13 (unknown origin) using LTB3 as substrate incubated for 1 hr and measured after 1 hr by fluorescence based assay. More on the design: species or system Homo sapiens.
Test [2] is filed under the species Homo sapiens. The experiment in a line: Ratio of Ki for inhibition of His-tagged HSD17B13 (unknown origin) using LTB3 as substrate to Ki for His-tagged HSD17B13 (unknown origin) using estradiol as substrate.
Test [3] is described as follows: Inhibition of His-tagged HSD17B13 (unknown origin) using estradiol as substrate incubated for 2 hrs and measured by LC-MS/MS analysis. Also noted: species or system Homo sapiens.

In the case of `CCOC(=O)c1cccc(-n2c(-c3ccncc3)nc3cc(OC)ccc32)c1`, the Ki in test [1] was 2720 nM; in test [3] it was greater than 30000 nM. Besides, in test [2], the Ratio Ki is less than 0.091.
For `Oc1cccc(-c2nccc3cc(O)ccc23)c1` the same measures were greater than 30000 nM, 8550 nM and greater than 3.5.
With `O=C1c2ccc(O)cc2C(=O)c2ccc(O)cc21` [ANTHRAFLAVICACID], the inhibitory constant (Ki) stood at 2810 nM in test [1] and 320 nM in test [3]. Moreover, the Ratio Ki in test [2] stood at 8.8.
Turning to `Cc1cc(-c2ccc(-c3cccc(O)c3)s2)ccc1O`, the results for the Ki in test [1] and in test [3] were 1070 nM and 7580 nM, respectively. Also, the Ratio Ki in test [2] came out at 0.14.

The Ki is a measure of affinity in units of concentration, obtained from inhibition or displacement. A lower Ki goes with higher affinity.
